Source: EP0908457B1, “3-(1,2-benzisothiazol- and isoxazol-5-Y1)-2,4(1H,3H)-pyrimidinedione or thione and 3-(1,2-benzisothiazol- and isoxazol-5-y1)-4(3H)-pyrimidinone or thione herbicidal agents” (BASF AKTIENGESELLSCHAFT, priority 1997, dated 1999)

Legend:
[1] = test system: Echinochloa oryzoides (Ard.) Fritsch.; assay: Preemergence weed control under flooded paddy conditions, ECHORC (Watergrass (Calif.)); type: in vivo; conditions: flooded paddy, rated three to four weeks after treatment; on herbicidal effect rating, ECHORC: meaning of each grade not given here
Cyperus iria = assay: Preemergence weed control under flooded paddy conditions, CYPIR (Rice Flatsedge); type: in vivo; conditions: flooded paddy, rated three to four weeks after treatment; on herbicidal effect rating, CYPIR: meaning of each grade not given here
[2] = test system: Cyperus serotinus, Rottb.; assay: Preemergence weed control under flooded paddy conditions, CYPSE (Flatsedge); type: in vivo; conditions: rated three to four weeks after treatment; on herbicidal effect rating, CYPSE: meaning of each grade not given here
[3] = test system: Monochoria vaginalis, Presl.; assay: Preemergence weed control under flooded paddy conditions, MOOVA (Monochoria); type: in vivo; conditions: flooded paddy, rated three to four weeks after treatment; on herbicidal effect rating, MOOVA: meaning of each grade not given here
Sagittaria pygmaea, L. = assay: Preemergence weed control under flooded paddy conditions, SAGPY (Arrowhead (Pygmaea)); type: in vivo; conditions: flooded paddy, rated three to four weeks after treatment; on herbicidal effect rating, SAGPY: meaning of each grade not given here
[4] = test system: Oryza sativa, (L.) Tebonnet; assay: Rice tolerance to post-transplant applications under flooded paddy conditions (Example 187), ORYSAT (Rice, Tebonnet); conditions: rated three to four weeks after treatment; on herbicidal effect rating ORYSAT: meaning of each grade not given here
[5] = Rate 0.0320 kg/ha, preemergence
[6] = Rate 0.0620 kg/ha, preemergence
[7] = Rate 0.1250 kg/ha, preemergence
[8] = Rate 0.2500 kg/ha, preemergence
[9] = 0.0313 kg/ha, preemergence weeds
[10] = 0.0625 kg/ha, preemergence weeds
[11] = 0.1250 kg/ha, preemergence weeds
[12] = 0.2500 kg/ha, preemergence weeds
[13] = Rate 0.0320 kg/ha, preemergence weeds
[14] = Rate 0.0620 kg/ha, preemergence weeds
[15] = Rate 0.1250 kg/ha, preemergence weeds
[16] = Rate 0.2500 kg/ha, preemergence weeds
[17] = Rate 0.5000 kg/ha, preemergence

## Cc1ccc(OCC(=O)N(C)O)c(-c2nsc3ccc(-n4c(=O)cc(C(F)(F)F)n(C)c4=O)cc23)c1 [Example 355, Acetohydroxamic acid, 2-{{2-{5-[3,6-dihydro-3-methyl-2,6-dioxo-4-(trifluoromethyl)-1(2H)pyrimidinyl]-1,2-benzisothiazol-3-yl}-p-tolyl}oxy}-N-methyl-]
[1]; [5]
  herbicidal effect rating, ECHORC: 7.0
[1]; [6]
  herbicidal effect rating, ECHORC: 9.0
[1]; [7]
  herbicidal effect rating, ECHORC: 9.0
[1]; [8]
  herbicidal effect rating, ECHORC: 9.0
Cyperus iria; [5]
  herbicidal effect rating, CYPIR: 4.5
Cyperus iria; [6]
  herbicidal effect rating, CYPIR: 4.5
Cyperus iria; [7]
  herbicidal effect rating, CYPIR: 6.5
Cyperus iria; [8]
  herbicidal effect rating, CYPIR: 5.0
[2]; [5]
  herbicidal effect rating, CYPSE: 0.0
[2]; [6]
  herbicidal effect rating, CYPSE: 1.0
[2]; [7]
  herbicidal effect rating, CYPSE: 3.5
[2]; [8]
  herbicidal effect rating, CYPSE: 5.0
[3]; [5]
  herbicidal effect rating, MOOVA: 9.0
[3]; [6]
  herbicidal effect rating, MOOVA: 9.0
[3]; [7]
  herbicidal effect rating, MOOVA: 9.0
[3]; [8]
  herbicidal effect rating, MOOVA: 9.0
Sagittaria pygmaea, L.; [5]
  herbicidal effect rating, SAGPY: 2.0
Sagittaria pygmaea, L.; [6]
  herbicidal effect rating, SAGPY: 4.5
Sagittaria pygmaea, L.; [7]
  herbicidal effect rating, SAGPY: 4.5
Sagittaria pygmaea, L.; [8]
  herbicidal effect rating, SAGPY: 9.0
[4]; Rate 0.0320 kg/ha
  herbicidal effect rating ORYSAT: 2.5
[4]; Rate 0.0620 kg/ha
  herbicidal effect rating ORYSAT: 3.0
[4]; Rate 0.1250 kg/ha
  herbicidal effect rating ORYSAT: 5.5
[4]; Rate 0.2500 kg/ha
  herbicidal effect rating ORYSAT: 5.0

## Cc1ccc(OCC(=O)NS(C)(=O)=O)c(-c2nsc3ccc(-n4c(=O)cc(C(F)(F)F)n(C)c4=O)cc23)c1 [Example 121, N-{{{2-{5-[3,6-Dihydro-3-methyl-2,6-dioxo-4-(trifluoromethyl)-1(2H)-pyrimidinyl]-1,2-benzisothiazol-3-yl}-p-tolyl}oxy}acetyl}methanesulfonamide]
[1]; [9]
  herbicidal effect rating, ECHORC: 6.0
[1]; [10]
  herbicidal effect rating, ECHORC: 7.0
[1]; [11]
  herbicidal effect rating, ECHORC: 8.0
[1]; [12]
  herbicidal effect rating, ECHORC: 9.0
Cyperus iria; [9]
  herbicidal effect rating, CYPIR: 0.0
Cyperus iria; [10]
  herbicidal effect rating, CYPIR: 0.0
Cyperus iria; [11]
  herbicidal effect rating, CYPIR: 2.0
Cyperus iria; [12]
  herbicidal effect rating, CYPIR: 4.0
[2]; [9]
  herbicidal effect rating, CYPSE: 0.0
[2]; [10]
  herbicidal effect rating, CYPSE: 0.0
[2]; [11]
  herbicidal effect rating, CYPSE: 2.0
[2]; [12]
  herbicidal effect rating, CYPSE: 4.0
[3]; [9]
  herbicidal effect rating, MOOVA: 9.0
[3]; [10]
  herbicidal effect rating, MOOVA: 9.0
[3]; [11]
  herbicidal effect rating, MOOVA: 9.0
[3]; [12]
  herbicidal effect rating, MOOVA: 9.0
Sagittaria pygmaea, L.; [9]
  herbicidal effect rating, SAGPY: 0.0
Sagittaria pygmaea, L.; [10]
  herbicidal effect rating, SAGPY: 0.0
Sagittaria pygmaea, L.; [11]
  herbicidal effect rating, SAGPY: 0.0
Sagittaria pygmaea, L.; [12]
  herbicidal effect rating, SAGPY: 0.0
[4]; 0.0313 kg/ha
  herbicidal effect rating, ORYSAT (rice tolerance): 3.0
[4]; 0.0625 kg/ha
  herbicidal effect rating, ORYSAT (rice tolerance): 4.0
[4]; 0.1250 kg/ha
  herbicidal effect rating, ORYSAT (rice tolerance): 6.0
[4]; 0.2500 kg/ha
  herbicidal effect rating, ORYSAT (rice tolerance): 9.0

## Cn1c(C(F)(F)F)cc(=O)n(-c2ccc3snc(CN=C=S)c3c2)c1=O [Example 311, Isothiocyanic acid, {5-[3,6-dihydro-3-methyl-2,6-dioxo-4-(trifluoromethyl)-1(2H)-pyrimidinyl]-1,2-benzisothiazol-3-yl}methyl ester]
[1]; [13]
  herbicidal effect rating, ECHORC: 0.0
[1]; [14]
  herbicidal effect rating, ECHORC: 0.0
[1]; [15]
  herbicidal effect rating, ECHORC: 0.0
[1]; [16]
  herbicidal effect rating, ECHORC: 0.0
Cyperus iria; [13]
  herbicidal effect rating, CYPIR: 0.0
Cyperus iria; [14]
  herbicidal effect rating, CYPIR: 9.0
Cyperus iria; [15]
  herbicidal effect rating, CYPIR: 9.0
Cyperus iria; [16]
  herbicidal effect rating, CYPIR: 9.0
[2]; [13]
  herbicidal effect rating, CYPSE: 0.0
[2]; [14]
  herbicidal effect rating, CYPSE: 0.0
[2]; [15]
  herbicidal effect rating, CYPSE: 0.0
[2]; [16]
  herbicidal effect rating, CYPSE: 0.0
[3]; [13]
  herbicidal effect rating, MOOVA: 0.0
[3]; [14]
  herbicidal effect rating, MOOVA: 9.0
[3]; [15]
  herbicidal effect rating, MOOVA: 9.0
[3]; [16]
  herbicidal effect rating, MOOVA: 9.0
Sagittaria pygmaea, L.; [13]
  herbicidal effect rating, SAGPY: 0.0
Sagittaria pygmaea, L.; [14]
  herbicidal effect rating, SAGPY: 0.0
Sagittaria pygmaea, L.; [15]
  herbicidal effect rating, SAGPY: 0.0
Sagittaria pygmaea, L.; [16]
  herbicidal effect rating, SAGPY: 0.0
[4]; Rate 0.0320 kg/ha
  herbicidal effect rating ORYSAT: 0.0
[4]; Rate 0.0620 kg/ha
  herbicidal effect rating ORYSAT: 0.0
[4]; Rate 0.1250 kg/ha
  herbicidal effect rating ORYSAT: 2.0
[4]; Rate 0.2500 kg/ha
  herbicidal effect rating ORYSAT: 2.0

## COc1cc(C)c(C)c(C)c1-c1nsc2ccc(-n3c(=O)cc(C(F)(F)F)n(C)c3=O)cc12 [Example 34, 3-[3-(6-Methoxy-2,3,4-trimethylphenyl)-1,2-benzisothiazol-5-yl]-1-methyl-6-(trifluoromethyl)-2,4(1H,3H)-pyrimidinedione]
[1]; 0.0313 kg/ha, preemergence
  herbicidal effect rating, ECHORC: 2.0
[1]; 0.0625 kg/ha, preemergence
  herbicidal effect rating, ECHORC: 2.5
[1]; 0.1250 kg/ha, preemergence
  herbicidal effect rating, ECHORC: 3.5
[1]; 0.2500 kg/ha, preemergence
  herbicidal effect rating, ECHORC: 4.5
Cyperus iria; 0.0313 kg/ha, preemergence
  herbicidal effect rating, CYPIR: 0.0
Cyperus iria; 0.0625 kg/ha, preemergence
  herbicidal effect rating, CYPIR: 0.0
Cyperus iria; 0.1250 kg/ha, preemergence
  herbicidal effect rating, CYPIR: 0.0
Cyperus iria; 0.2500 kg/ha, preemergence
  herbicidal effect rating, CYPIR: 0.0
[2]; 0.0313 kg/ha, preemergence
  herbicidal effect rating, CYPSE: 0.0
[2]; 0.0625 kg/ha, preemergence
  herbicidal effect rating, CYPSE: 0.0
[2]; 0.1250 kg/ha, preemergence
  herbicidal effect rating, CYPSE: 0.0
[2]; 0.2500 kg/ha, preemergence
  herbicidal effect rating, CYPSE: 0.0
[3]; 0.0313 kg/ha, preemergence
  herbicidal effect rating, MOOVA: 0.0
[3]; 0.0625 kg/ha, preemergence
  herbicidal effect rating, MOOVA: 0.0
[3]; 0.1250 kg/ha, preemergence
  herbicidal effect rating, MOOVA: 0.0
[3]; 0.2500 kg/ha, preemergence
  herbicidal effect rating, MOOVA: 0.0
Sagittaria pygmaea, L.; 0.0313 kg/ha, preemergence
  herbicidal effect rating, SAGPY: 0.0
Sagittaria pygmaea, L.; 0.0625 kg/ha, preemergence
  herbicidal effect rating, SAGPY: 0.0
Sagittaria pygmaea, L.; 0.1250 kg/ha, preemergence
  herbicidal effect rating, SAGPY: 0.0
Sagittaria pygmaea, L.; 0.2500 kg/ha, preemergence
  herbicidal effect rating, SAGPY: 0.0
[4]; 0.0313 kg/ha
  herbicidal effect rating, ORYSAT (rice tolerance): 0.0
[4]; 0.0625 kg/ha
  herbicidal effect rating, ORYSAT (rice tolerance): 0.0
[4]; 0.1250 kg/ha
  herbicidal effect rating, ORYSAT (rice tolerance): 0.0
[4]; 0.2500 kg/ha
  herbicidal effect rating, ORYSAT (rice tolerance): 0.0

## Cc1ccc(OCC(=O)OCCN(C)C)c(-c2nsc3ccc(-n4c(=O)cc(C(F)(F)F)n(C)c4=O)cc23)c1 [Example 70, 2-(Dimethylamino)ethyl {{2-{5-[3,6-dihydro-3-methyl-2,6-dioxo-4-(trifluoromethyl)-1(2H)-pyrimidinyl]-1,2-benzisothiazol-3-yl}-p-tolyl}oxy}acetate]
[1]; 0.0313 kg/ha, preemergence
  herbicidal effect rating, ECHORC: 4.0
[1]; 0.0625 kg/ha, preemergence
  herbicidal effect rating, ECHORC: 8.0
[1]; 0.1250 kg/ha, preemergence
  herbicidal effect rating, ECHORC: 9.0
[1]; 0.2500 kg/ha, preemergence
  herbicidal effect rating, ECHORC: 9.0
Cyperus iria; 0.0313 kg/ha, preemergence
  herbicidal effect rating, CYPIR: 2.0
Cyperus iria; 0.0625 kg/ha, preemergence
  herbicidal effect rating, CYPIR: 7.0
Cyperus iria; 0.1250 kg/ha, preemergence
  herbicidal effect rating, CYPIR: 9.0
Cyperus iria; 0.2500 kg/ha, preemergence
  herbicidal effect rating, CYPIR: 9.0
[2]; 0.0313 kg/ha, preemergence
  herbicidal effect rating, CYPSE: 0.0
[2]; 0.0625 kg/ha, preemergence
  herbicidal effect rating, CYPSE: 0.0
[2]; 0.1250 kg/ha, preemergence
  herbicidal effect rating, CYPSE: 0.0
[2]; 0.2500 kg/ha, preemergence
  herbicidal effect rating, CYPSE: 0.0
[3]; 0.0313 kg/ha, preemergence
  herbicidal effect rating, MOOVA: 9.0
[3]; 0.0625 kg/ha, preemergence
  herbicidal effect rating, MOOVA: 9.0
[3]; 0.1250 kg/ha, preemergence
  herbicidal effect rating, MOOVA: 9.0
[3]; 0.2500 kg/ha, preemergence
  herbicidal effect rating, MOOVA: 9.0
Sagittaria pygmaea, L.; 0.0313 kg/ha, preemergence
  herbicidal effect rating, SAGPY: 0.0
Sagittaria pygmaea, L.; 0.0625 kg/ha, preemergence
  herbicidal effect rating, SAGPY: 0.0
Sagittaria pygmaea, L.; 0.1250 kg/ha, preemergence
  herbicidal effect rating, SAGPY: 1.0
Sagittaria pygmaea, L.; 0.2500 kg/ha, preemergence
  herbicidal effect rating, SAGPY: 2.0
[4]; 0.0313 kg/ha
  herbicidal effect rating, ORYSAT (rice tolerance): 3.0
[4]; 0.0625 kg/ha
  herbicidal effect rating, ORYSAT (rice tolerance): 4.5
[4]; 0.1250 kg/ha
  herbicidal effect rating, ORYSAT (rice tolerance): 6.0
[4]; 0.2500 kg/ha
  herbicidal effect rating, ORYSAT (rice tolerance): 6.5

## Cc1nsc2ccc(-n3c(=O)c(Cl)c(C(F)(F)F)n(C)c3=O)cc12 [Example 271, 2,4(1H,3H)-Pyrimidinedione, 5-chloro-1-methyl-3-(3-methyl-1,2-benzisothiazol-5-yl)-6-(trifluoromethyl)-]
[1]; [6]
  ECHORC herbicidal effect rating: 0.0
[1]; [7]
  ECHORC herbicidal effect rating: 0.0
[1]; [8]
  ECHORC herbicidal effect rating: 0.0
[1]; [17]
  ECHORC herbicidal effect rating: 0.0
Cyperus iria; [6]
  CYPIR herbicidal effect rating: 0.0
Cyperus iria; [7]
  CYPIR herbicidal effect rating: 0.0
Cyperus iria; [8]
  CYPIR herbicidal effect rating: 0.0
Cyperus iria; [17]
  CYPIR herbicidal effect rating: 0.0
[2]; [6]
  CYPSE herbicidal effect rating: 0.0
[2]; [7]
  CYPSE herbicidal effect rating: 0.0
[2]; [8]
  CYPSE herbicidal effect rating: 0.0
[2]; [17]
  CYPSE herbicidal effect rating: 0.0
[3]; [6]
  MOOVA herbicidal effect rating: 0.0
[3]; [7]
  MOOVA herbicidal effect rating: 4.0
[3]; [8]
  MOOVA herbicidal effect rating: 9.0
[3]; [17]
  MOOVA herbicidal effect rating: 9.0
Sagittaria pygmaea, L.; [6]
  SAGPY herbicidal effect rating: 0.0
Sagittaria pygmaea, L.; [7]
  SAGPY herbicidal effect rating: 0.0
Sagittaria pygmaea, L.; [8]
  SAGPY herbicidal effect rating: 0.0
Sagittaria pygmaea, L.; [17]
  SAGPY herbicidal effect rating: 0.0
[4]; Rate 0.0620 kg/ha
  ORYSAT herbicidal effect rating: 1.0
[4]; Rate 0.1250 kg/ha
  ORYSAT herbicidal effect rating: 2.0
[4]; Rate 0.2500 kg/ha
  ORYSAT herbicidal effect rating: 3.0
[4]; Rate 0.5000 kg/ha
  ORYSAT herbicidal effect rating: 0.0
